Here are results for 10 compounds from article PMC7249047, “Search for ABCB1 Modulators Among 2-Amine-5-Arylideneimidazolones as a New Perspective to Overcome Cancer Multidrug Resistance” (Molecules, 2020).

Structures can show the parent of a compound that is named as a salt.

Data set [1] concerns multidrug-resistant (MDR) mouse T-lymphoma cells. The data set can be described thus: Antiproliferative MTT assay, 72 h, MDR cells. To be noted: for SI (selectivity index), antiproliferative: MDR with respect to PAR cells; for IC50: Mus musculus, MDR cells, 72 h, MTT, read-out: Antiproliferative effect IC50. It counts as cell-based. The protocol: (§1) The ABCB1-expressing cell line L5178Y (MDR) was selected by culturing the infected cells with colchicine. The parental L5178 mouse T-cell lymphoma cells and the L5178Y human ABCB1-transfected subline were cultured in McCoy’s 5A medium (Sigma-Aldrich, St Louis, MO, USA) supplemented with 10% heat-inactivated horse serum (Sigma-Aldrich, St Louis, MO, USA), 200 mM L-glutamine (Sigma-Aldrich, St Louis, MO, USA), and a penicillin-streptomycin (Sigma-Aldrich, St Louis, MO, USA) mixture in concentrations of 100 U/L and 10 mg/L, respectively.
(§2) Cytotoxicity and antiproliferative assays were performed following the procedure described in the literature. Parental and multidrug-resistant mouse T-lymphoma cells were used to determine the effect of the arylideneimidazolones on the growth of cells. The effects of increasing concentrations of arylideneimidazolones on cell growth were tested in 96-well flat-bottomed microtiter plates. The compounds were diluted in a volume of 100 μL of medium.
(§3) In the case of the mouse T-lymphoma cells, the two-fold serial dilutions were prepared in 100 μL of McCoy’s 5A, horizontally. The parental (PAR) and multidrug-resistant (MDR) mouse T-lymphoma cells were adjusted to a density of 1 × 10^4 cells (for cytotoxic assay) and 6 × 10^3 (for antiproliferative assay) in 100 μL of McCoy’s 5A medium and were added to each well, with the exception of the medium control wells.
(§4) Cell growth was determined by measuring the optical density (OD) at 540/630 nm with a Multiscan EX ELISA reader (Thermo Labsystems, Cheshire, WA, USA).

A short description of data set [2]: Cytotoxicity MTT assay, 24 h, PAR cells. In kind it is cell-based. To be noted: mouse, parental (PAR) L5178 mouse T-cell lymphoma cells, read-out: Cytotoxic effect IC50. The protocol:
(§5) The cytotoxicity of compounds 7–20 was examined in both aforementioned PAR and MDR mouse T-lymphoma cell lines, using the MTT assay to estimate IC50 values. The selectivity index for cytotoxic action on MDR with respect to PAR cells was calculated (SI, Table 3). […] This range of SI may indicate ABCB1-efflux pump substrate properties for the whole series (7–20), especially distinct in the case of 19 (SI ≤ 0.29), and slightly weaker for 8, 12, 16, and 18.
as §1, with “L5178 mouse T-cell lymphoma cells (PAR) (ECACC Cat. No. 87111908, obtained from FDA, Silver Spring, MD, USA) were transfected with pHa MDR1/A retrovirus, as previously described by Cornwell et al.. The ABCB1-expressing” for “The ABCB1-expressing”, “mg/L, respectively. The cell lines were incubated at 37 °C, in a 5% CO2, 95% air atmosphere.” for “mg/L, respectively.”
as §2, §3
(§6) The culture plates were incubated at 37 °C for 24 h (for cytotoxicity assay) and 72 h (for antiproliferative assay); at the end of the incubation period, 20 μL of MTT (thiazolyl blue tetrazolium bromide, Sigma) solution (from a stock solution of 5 mg/mL) were added to each well. After incubation at 37 °C for 4 h, 100 μL of sodium dodecyl sulfate (SDS) (Sigma) solution (10% in 0.01 M HCI) were added to each well and the plates were further incubated at 37 °C overnight. Cell growth was determined by measuring the optical density (OD) at 540/630 nm with a Multiscan EX ELISA reader (Thermo Labsystems, Cheshire, WA, USA).
(§7) Results have been expressed in terms of IC50, defined as the inhibitory dose that reduces the growth of the cells exposed to the tested compounds by 50%, each representing the mean of a minimum of three independent experiments.

Data set [3] is described as follows: Cytotoxicity MTT assay, 24 h, MDR cells. To be noted: mouse; for IC50 at 24 h: MDR cells, MTT, read-out: Cytotoxic effect IC50; for selectivity ratio at 24 h: cytotoxic action on MDR with respect to PAR cells, read-out: SI (selectivity index), cytotoxicity. It counts as cell-based. The method, then: as §5
as §1, with “L5178 mouse T-cell lymphoma cells (PAR) (ECACC Cat. No. 87111908, obtained from FDA, Silver Spring, MD, USA) were transfected with pHa MDR1/A retrovirus, as previously described by Cornwell et al.. The ABCB1-expressing” for “The ABCB1-expressing”, “mg/L, respectively. The cell lines were incubated at 37 °C, in a 5% CO2, 95% air atmosphere.” for “mg/L, respectively.”
as §2, §3, §6, §7

The target in the next data set is ABCB1 efflux pump (Homo sapiens, UniProt P08183). In words: Rhodamine 123 accumulation assay (flow cytometry). To be noted: for FAR Quotient (%): FAR of compound related to FAR of VER tested at 20 µM; for FAR (fluorescence activity ratio): rhodamine 123 accumulation, MDR vs PAR mouse T-lymphoma cells.
Chain of ABCB1 efflux pump (P08183 whole entry): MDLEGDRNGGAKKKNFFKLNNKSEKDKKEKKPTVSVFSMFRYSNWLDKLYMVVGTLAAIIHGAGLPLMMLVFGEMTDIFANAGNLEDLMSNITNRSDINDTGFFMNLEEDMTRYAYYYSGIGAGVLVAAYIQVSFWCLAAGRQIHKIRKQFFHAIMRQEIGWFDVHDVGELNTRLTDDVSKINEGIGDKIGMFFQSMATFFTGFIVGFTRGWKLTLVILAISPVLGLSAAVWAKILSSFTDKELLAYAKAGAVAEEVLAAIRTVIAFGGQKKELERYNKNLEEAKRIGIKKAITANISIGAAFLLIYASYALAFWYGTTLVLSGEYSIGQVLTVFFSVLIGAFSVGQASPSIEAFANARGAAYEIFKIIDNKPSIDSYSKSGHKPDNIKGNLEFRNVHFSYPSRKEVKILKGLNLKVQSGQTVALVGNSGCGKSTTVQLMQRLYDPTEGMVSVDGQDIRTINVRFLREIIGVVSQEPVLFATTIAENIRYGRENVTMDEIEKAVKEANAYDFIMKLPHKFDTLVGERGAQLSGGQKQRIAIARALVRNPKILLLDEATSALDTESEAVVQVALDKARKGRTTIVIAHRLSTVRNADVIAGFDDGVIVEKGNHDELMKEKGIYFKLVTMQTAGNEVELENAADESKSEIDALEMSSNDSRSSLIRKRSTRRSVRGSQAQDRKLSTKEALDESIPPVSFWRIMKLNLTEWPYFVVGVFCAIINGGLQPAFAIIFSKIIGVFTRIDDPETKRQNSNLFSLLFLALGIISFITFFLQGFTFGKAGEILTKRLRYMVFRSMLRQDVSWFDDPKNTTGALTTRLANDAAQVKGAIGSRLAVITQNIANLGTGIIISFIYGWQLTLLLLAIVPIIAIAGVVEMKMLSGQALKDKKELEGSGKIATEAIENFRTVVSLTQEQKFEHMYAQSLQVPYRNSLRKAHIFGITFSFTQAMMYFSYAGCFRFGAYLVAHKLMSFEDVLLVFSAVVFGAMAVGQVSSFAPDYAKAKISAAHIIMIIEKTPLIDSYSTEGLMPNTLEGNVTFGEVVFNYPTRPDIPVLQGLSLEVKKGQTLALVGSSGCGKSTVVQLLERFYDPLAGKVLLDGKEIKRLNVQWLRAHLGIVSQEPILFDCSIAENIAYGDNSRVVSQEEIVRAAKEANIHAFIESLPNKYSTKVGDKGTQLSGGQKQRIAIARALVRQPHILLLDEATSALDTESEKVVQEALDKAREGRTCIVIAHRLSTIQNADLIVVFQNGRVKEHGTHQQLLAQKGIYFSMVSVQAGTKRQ
Data set [4] has as its system parental (PAR) mouse T-lymphoma cells. In words: Antiproliferative MTT assay, 72 h, PAR cells. In kind it is cell-based. The following applies: read-out: Antiproliferative effect IC50. The method, then: as §1, §2, §3, §4
On the technique in general: Formazan colour is commonly taken as a measure of viable cells.

[5] abbreviates: concentration 20 µM, VER values for assay group 1 / 2.

Procedure for ABCB1 efflux pump: The study was carried out on mouse T-lymphoma cell lines, including the parental sensitive line (PAR) and its multidrug-resistant subline (MDR) transfected with the human MDR1 (ABCB1) gene. […] The fluorescence activity ratio (FAR), as a measure of the efflux pump modulating properties, was calculated based on the fluorescence data obtained [23, 24, 25]. […] The parental L5178 mouse T-cell lymphoma cells and the L5178Y human ABCB1-transfected subline were cultured in McCoy’s 5A medium (Sigma-Aldrich, St Louis, MO, USA) supplemented with 10% heat-inactivated horse serum (Sigma-Aldrich, St Louis, MO, USA), 200 mM L-glutamine (Sigma-Aldrich, St Louis, MO, USA), and a penicillin-streptomycin (Sigma-Aldrich, St Louis, MO, USA) mixture in concentrations of 100 U/L and 10 mg/L, respectively.
The potency of the tested compounds as inhibitors of the ABCB1 efflux pump was determined using a fluorescence-based detection system, described previously in the literature [23, 26]. […] The parental (PAR) and multidrug-resistant (MDR) mouse T-lymphoma cells were adjusted to a density of 2 × 10^6/mL, re-suspended in serum-free McCoy’s 5A medium, and distributed in 0.5 mL aliquots into Eppendorf centrifuge tubes. […] The fluorescence intensity of the cell population was measured with a Partec CyFlow flow cytometer (Partec, Munster, Germany). […] The mean fluorescence intensity (%) was calculated for the treated MDR and PAR mouse T-lymphoma cells as compared to the untreated cells.

As a reminder, the melting point is the temperature, or range, at which the solid turns liquid. `NC1=N/C(=C\c2ccc(-c3ccccc3)cc2)C(=O)N1CCN1CCOCC1` (as salt: hydrochloride) [Compound 14] gave a melting point of 266 to 270 °C.

As usually defined, the IC50 is the concentration that inhibits the measured activity by half. The compound `Cl.O=C1NC(N2CCOCC2)=N/C1=C\c1ccc(-c2ccccc2)cc1` [Compound 7, (Z)-5-(Biphen-4-ylmethylene)-2-morpholino-3H-imidazol-4(5H)-one hydrochloride] registered a melting point of 248 to 252 °C. In data set [1], the “SI (selectivity index), antiproliferative” value (“SI (selectivity index)” below) was 0.67 and the 50% inhibitory concentration (IC50) amounted to 26.3 µM. Moreover, the IC50 at 24 h in data set [2] amounted to 53.5 µM. In addition, in data set [3], the IC50 at 24 h was found to be 54.2 µM and the selectivity ratio at 24 h was found to be 0.99. Further, at ABCB1 efflux pump (concentration 2 µM), the “FAR Quotient (%)” value amounted to 7.31% and the “FAR (fluorescence activity ratio)” value is 0.955. Besides, the “FAR Quotient (%)” value on ABCB1 efflux pump (concentration 20 µM) was found to be 7.09%. Besides, the “FAR (fluorescence activity ratio)” value at ABCB1 efflux pump (setting [5]) amounted to 0.927. For the same compound, the IC50 in data set [4] stood at 17.6 µM.

In turn, `Cl.O=C1N=C(N2CCC(N3CCOCC3)CC2)N/C1=C\c1ccc(-c2ccccc2)cc1` [Compound 8, (Z)-5-(Biphen-4-ylmethylene)-2-(4-morpholinopiperidin-1-yl)-imidazol-4(5H)-one hydrochloride] gave a melting point of 267 to 269 °C. Further, in data set [1], the “SI (selectivity index)” value came to 0.57 and the IC50 amounted to 26 µM. In data set [2], the IC50 at 24 h came to 24 µM. Moreover, in data set [3], the IC50 at 24 h came out at 46.4 µM and the selectivity ratio at 24 h worked out at 0.52. Also, on ABCB1 efflux pump (concentration 2 µM), the “FAR Quotient (%)” value is 8.49% and the “FAR (fluorescence activity ratio)” value was 1.359. Moreover, at ABCB1 efflux pump (concentration 20 µM), the “FAR Quotient (%)” value is reported as 15.04%. In addition, on ABCB1 efflux pump (setting [5]), the “FAR (fluorescence activity ratio)” value came to 2.409. The IC50 in data set [4] worked out at 14.8 µM.

In turn, `Cl.O=C1N=C(N2CCN(CCN3CCOCC3)CC2)N/C1=C\c1ccc(-c2ccccc2)cc1` [Compound 9, (Z)-5-(Biphen-4-ylmethylene)-2-(4-(2-morpholinoethyl)piperazin-1-yl)-imidazol-4(5H)-one hydrochloride] had a melting point of 305 to 307 °C. In data set [1], the “SI (selectivity index)” value was 0.47 and the IC50 came out at 16.5 µM. Besides, the IC50 at 24 h in data set [2] was found to be 12.8 µM. For the same compound, in data set [3], the IC50 at 24 h was 18.1 µM and the selectivity ratio at 24 h amounted to 0.71. For the same compound, on ABCB1 efflux pump (concentration 2 µM), the “FAR Quotient (%)” value is 5.86% and the “FAR (fluorescence activity ratio)” value stood at 0.766. The “FAR Quotient (%)” value at ABCB1 efflux pump (concentration 20 µM) is 12.58%. Moreover, the “FAR (fluorescence activity ratio)” value at ABCB1 efflux pump (setting [5]) worked out at 1.645. Moreover, the IC50 in data set [4] turned out to be 7.78 µM.

In turn, `Cl.O=C1N=C(N2CCC(N3CCOCC3)CC2)N/C1=C\c1cccc(Oc2ccccc2)c1` [Compound 10, (Z)-5-(3-Phenoxybenzylidene)-2-(4-morpholinopiperidin-1-yl)-imidazol-4(5H)-one hydrochloride] had a melting point of 289 to 292 °C. Further, in data set [1], the “SI (selectivity index)” value is on record as 1.18 and the IC50 amounted to 22.4 µM. In addition, in data set [2], the IC50 at 24 h worked out at 54 µM. Also, in data set [3], the IC50 at 24 h came to 63.8 µM and the selectivity ratio at 24 h stood at 0.85. Moreover, on ABCB1 efflux pump (concentration 2 µM), the “FAR Quotient (%)” value is given as 6.92% and the “FAR (fluorescence activity ratio)” value came to 1.108. In addition, at ABCB1 efflux pump (concentration 20 µM), the “FAR Quotient (%)” value is 12.44%. Moreover, the “FAR (fluorescence activity ratio)” value on ABCB1 efflux pump (setting [5]) was determined as 1.992. The IC50 in data set [4] came out at 26.4 µM.

`Cl.O=C1N=C(N2CCC(N3CCOCC3)CC2)N/C1=C\c1c2ccccc2cc2ccccc12` [Compound 13, (Z)-5-(Anthracen-10-ylmethylene)-2-(4-morpholinopiperidin-1-yl)-imidazol-4(5H)-one hydrochloride] gave a melting point of 303 to 305 °C. Moreover, in data set [1], the “SI (selectivity index)” value stood at 0.36 and the IC50 was determined as 48.6 µM. For the same compound, the IC50 at 24 h in data set [2] was determined as 82.2 µM. In addition, in data set [3], the IC50 at 24 h is > 100 µM and the selectivity ratio at 24 h is ≤ 0.82. Also, at ABCB1 efflux pump (concentration 2 µM), the “FAR Quotient (%)” value is 6.04% and the “FAR (fluorescence activity ratio)” value is on record as 0.968. Moreover, at ABCB1 efflux pump (concentration 20 µM), the “FAR Quotient (%)” value is listed as 12.94%. Moreover, the “FAR (fluorescence activity ratio)” value at ABCB1 efflux pump (setting [5]) worked out at 2.073. In data set [4], the IC50 came out at 17.4 µM.

Consider `NC1=N/C(=C\c2ccc(-c3ccccc3)cc2)C(=O)N1CCN1CCOCC1` [Compound 14], for which the “SI (selectivity index)” value in data set [1] was determined as 0.89. Further, the IC50 in data set [1] was 27.9 µM; in data set [4], 24.9 µM. For the same compound, the IC50 at 24 h in data set [2] turned out to be 36.9 µM; in data set [3] it was 57.4 µM. In data set [3], the selectivity ratio at 24 h is 0.64. The entries for the “FAR Quotient (%)” value at ABCB1 efflux pump (concentration 2 µM) and on ABCB1 efflux pump (concentration 20 µM) were 6.22% and 6.48%, respectively. For the same compound, the “FAR (fluorescence activity ratio)” value is recorded as 0.814 at ABCB1 efflux pump (concentration 2 µM) and 0.847 on ABCB1 efflux pump (setting [5]).

On to `NC1=N/C(=C\c2cccc(Oc3ccccc3)c2)C(=O)N1CCCN1CCOCC1` [Compound 16], for which the “SI (selectivity index)” value in data set [1] turned out to be 0.94. Besides, the IC50 in data set [1] was 12.2 µM; in data set [4], 11.4 µM. In addition, the 50% inhibitory concentration (IC50) at 24 h was found to be 16 µM in data set [2] and 31.3 µM in data set [3]. In addition, in data set [3], the selectivity ratio at 24 h worked out at 0.51. Moreover, the “FAR Quotient (%)” value at ABCB1 efflux pump (concentration 2 µM) was 7.09%; at ABCB1 efflux pump (concentration 20 µM), 18.55%. Besides, the results for the “FAR (fluorescence activity ratio)” value on ABCB1 efflux pump (concentration 2 µM) and on ABCB1 efflux pump (setting [5]) were 0.927 and 2.426, respectively.

Regarding `NC1=N/C(=C\c2c3ccccc3cc3ccccc23)C(=O)N1CCCN1CCOCC1` [Compound 19], in data set [1], the “SI (selectivity index)” value is listed as 0.33. For the same compound, the IC50 was 43.8 µM in data set [1] and 14.4 µM in data set [4]. For the same compound, the IC50 at 24 h in data set [2] is 28.6 µM; in data set [3] it was > 100 µM. The selectivity ratio at 24 h in data set [3] is ≤ 0.29. The figures for the “FAR Quotient (%)” value at ABCB1 efflux pump (concentration 2 µM) and at ABCB1 efflux pump (concentration 20 µM) were 7.94% and 10.08%, respectively. Also, the “FAR (fluorescence activity ratio)” value was determined as 1.272 on ABCB1 efflux pump (concentration 2 µM) and 1.615 at ABCB1 efflux pump (setting [5]).

For the compound `COc1cccc2c1C(=O)c1c(O)c3c(c(O)c1C2=O)C[C@@](O)(C(=O)CO)C[C@@H]3O[C@H]1C[C@H](N)[C@H](O)[C@H](C)O1` [DOX, doxorubicin, reference compound], in data set [1], the “SI (selectivity index)” value stood at 0.16 and the IC50 stood at 1.75 µM. In data set [2], the IC50 at 24 h came to 0.7 µM. Besides, in data set [3], the IC50 at 24 h came to 2.14 µM and the selectivity ratio at 24 h was 0.33. The IC50 in data set [4] turned out to be 0.28 µM.
